Assay results published in patent US20090017489A1, “Methods For Modulating The Development Of Dopamine Neuron By The Dopamine D2 Receptor And Compositions Thereof” (Korea University Industry And Academy Cooperation Foundation, priority 2006, published 2009).
“Also recorded” adds a separate entry of the source.

How the values were obtained:
[1] = tested on: dopamine D1 receptor (D1R)-mediated Nurr1 activation; experiment: NurRE-dependent luciferase reporter gene activation assay in HEK293T cells transfected with D1R; type: cell-based
Method: To investigate the effect of D2R on the number of TH-positive neurons and Nurr1 expression, Nur response element (NurRE)-dependent reporter gene activation assay was carried out to determine whether or not D2R activation might induce Nurr1 activation (Philips et al, Mol Cell Biol., 1997, 17:5946-5951; Maira et al, Mol Cell Biol., 1999, 19:7549-7557). HEK293T cells distributed from Korean cell line Bank were cultured in DMEM (Dulbeco's modified eagle's medium; Invitrogen, Carlsbad, Calif.) supplemented with 10% FBS (fetal bovine serum; Invitrogen, Carlsbad, Calif.) and transfected the same with dopamine receptors, Nurr1, and NurRE gene using a jetPEI transfection reagent (Qbiogene, Carlsbad, Calif.). In detail, 5˜7×10^5 cells confluent monolayers of HEK293 cells were transfected with 1.5 μg of pSV-D2R or pSV-D1R, 1.5 μg of pCMX-Nurr1, 1.5 μg of pXP1-luc containing POMC gene promoter and NurRE (pXP1-NurRE-luc), and 0.5 μg of pCH110. […] After treatment, the cells were lysed and assayed for luciferase activity using the luciferase assay system (Promega, Madison, Wis.), and luminescence was measured using a 96-well luminometer (Microlumat; EG & Berthold, Bad Wilbad, Germany).

[2] = tested on: D2R-mediated Nurr1 activation; experiment: NurRE-dependent luciferase reporter gene activation assay in HEK293T cells transfected with D2R, Nurr1 and NurRE-luc; type: cell-based
Method: To investigate the effect of D2R on the number of TH-positive neurons and Nurr1 expression, Nur response element (NurRE)-dependent reporter gene activation assay was carried out to determine whether or not D2R activation might induce Nurr1 activation (Philips et al, Mol Cell Biol., 1997, 17:5946-5951; Maira et al, Mol Cell Biol., 1999, 19:7549-7557). HEK293T cells distributed from Korean cell line Bank were cultured in DMEM (Dulbeco's modified eagle's medium; Invitrogen, Carlsbad, Calif.) supplemented with 10% FBS (fetal bovine serum; Invitrogen, Carlsbad, Calif.) and transfected the same with dopamine receptors, Nurr1, and NurRE gene using a jetPEI transfection reagent (Qbiogene, Carlsbad, Calif.). In detail, 5˜7×10^5 cells confluent monolayers of HEK293 cells were transfected with 1.5 μg of pSV-D2R or pSV-D1R, 1.5 μg of pCMX-Nurr1, 1.5 μg of pXP1-luc containing POMC gene promoter and NurRE (pXP1-NurRE-luc), and 0.5 μg of pCH110. In case of the transfection with Ras dominant-negative mutant, cells were transfected with 1.0 μg of pMT-RasN17 or pSK-null vector, 1.0 μg of pSV-D2R, 1.0 μg of pCMX-Nurr1, 1.0 μg of pXP1-NurRE-luc, and 0.5 μg of pCH110. After 3 hours, the transfection mixture was replaced with fresh growth medium. Assays were performed 48 hours after transfection. Cells were preincubated overnight in serum-free growth medium before treatment with agonists. The cells were treated with various concentrations of dopamine or SKF38393, respectively, for 6 hours at 37° C. with or without preincubation of haloperidol (1 μM for 5 minutes), pertussis toxin (PTX) (100 ng/ml for 12 hours), H-89 (1 μM for 20 minutes), and PD98059 (10 μM for 30 minutes). After treatment, the cells were lysed and assayed for luciferase activity using the luciferase assay system (Promega, Madison, Wis.), and luminescence was measured using a 96-well luminometer (Microlumat; EG & Berthold, Bad Wilbad, Germany).
The data obtained were fitted to a sigmoid curve with a variable slope factor using nonlinear squares regression in GraphPad Prism software, which is shown in FIG. 5.

[3] = tested on: TH-positive dopaminergic neurons in mesencephalic cultures from WT and D2R−/− mice; experiment: Number of TH-positive neurons and neurite length in primary mesencephalic cultures; type: cell-based, mouse
Source text: (§1) D2R−/− mice and wild-type (WT) mice were obtained by mating D2R−/− mice and heterozygous mice, purchased from Institut de Genetiqul et Biologie Moleculaire et celluaire (Strasbourg, France), and their genotypes were identified by Southern hybridization analyses (An J J et al., Mol Cell Neurosci. 2004, 25: 732-741). Insemination was confirmed by vaginal plug and considered to be embryonic day 0 (E0). Pregnant mothers were killed at E14 in accordance with Society for Neuroscience Guidelines. To prepare primary mesencephalic neuronal cultures, the mesencephalon dissected from 14 day gestation mouse embryo was incubated with 0.1% of trypsin in HBSS for 10 minutes at 37° C. and triturated with a constricted Pasteur pipette in high-glucose DMEM media supplemented with 10% FBS (Invitrogen, San Diego, Calif.), 1.4 mM L-glutamine, and 6.0 g/L glucose. The neurons were plated at 1.0×10^5 cells per 18×18 mm coverslip (Marienfeld, Lauda-Konigshofen, Germany) or 2.0×10^5 cells per six-well plates precoated with 50 μg/ml poly-D-lysine and 2 μg/ml laminin (Sigma, St. Louis, Mo.). The neurons were maintained at 37° C. in a humidified 5% CO2 atmosphere in Neurobasal media supplemented with B27 and GlutaMax-1.
To determine whether the absence of dopamine D2 receptor (D2R) might affect the number of dopaminergic neurons, dopaminergic neurons, which were isolated from mesencephalons of wild-type (WT) and D2R−/− embryonic mice, were incubated on slides with 1.0×10^5 cells and precoated with 50 μg/ml poly-D-lysine and 2 μg/ml laminin (Sigma, St. Louis, Mo.) at 37° C. for 5 days, followed by performing immunofluorescence staining. The immunofluorescence staining was performed such that primarily cultured dopaminergic neurons were fixed with 4% paraformaldehyde for 20 minutes at room temperature (RT) and blocked for 1 hour in PBS containing 5% normal horse serum and 0.2% Triton X-100. Then, the neurons were incubated with a rabbit polyclonal anti-tyrosine hydroxylase (TH) (1:1000; Pel-Freez, Rogers, Ark.) in PBS containing 1% normal horse serum and 0.2% Triton X-100 at 4° C. for over 16 hours, and followed by staining according to avidin-biotin immunohistochemical procedures (Vector Laboratories, Burlingame, Calif.). Using a microscope equipped with an metamorph imaging system (Universal Imaging Corporation, West Chester, Pa.) in 20 randomly selected fields per each slide, cell counts and morphometric analysis were made in randomly selected unbiased counting frames (>40 frames out of 81 grids were counted).
Thereafter, the treated cells were fixed and stained in the same manner as in EXAMPLE 2 for counting the number TH-positive cells and analyzing the neuritic shape (FIG. 6A).
Thereafter, the neurons were treated with 1 μM quinpirol.

[4] = tested on: phosphorylated ERK (p-ERK) in mesencephalic neurons from WT and D2R−/− mice; experiment: ERK phosphorylation in mesencephalic neurons (immunofluorescence and Western blot); type: cell-based, mouse; settings: Western blot
Method: Then, cells were fixed in the same manner as in EXAMPLE 2, a rabbit polyclonal anti-TH (1:1000; Pel-Freez) and a mouse monoclonal anti-phosphorylated ERK (p-ERK) (E10; 1:200; Cell Signaling, Beverly, Mass.) were reacted at 4° C. for 12 hours. Thereafter, the resultant neurons were stained at RT for 1 hour with two fluorescent antibodies, that is, Alexa Fluor 568 goat anti-rabbit IgG and Alexa Fluor 488 goat anti-mouse IgG (1:200; Molecular Probes, Eugene, Oreg.). After staining, ERK-positive neurons among TH-positive neurons were examined.
To observe immunofluorescent images, a confocal microscope system (Nikon Eclipse fluorescence microscope, TE2000-U, Nikon, Kanagawa, Japan; Ultraview RS confocal scanner, Perkin elmer, Wellesley, Mass.) or a fluorescence microscope (Axiovert 2000 microscope with epifluorescence unit, Zeiss, Zena, Germany) was used. The Western blot analysis was carried out in the following conditions. […] The resultant mixture was homogenized with probe type sonicator on ice, and followed by centrifugation at 13,000×g for 10 minutes at 4° C. Protein (50 μg), as measured by Bradford protein assay, was subjected to electrophoresis on 10% SDS-PAGE. […]

[5] = tested on: TH-positive neurons in primary mesencephalic cultures from WT and D2R−/− mice; experiment: MPP+ treatment of primary mesencephalic dopaminergic neuronal cultures, TH-positive cell counting; type: cell-based, mouse; settings: for number of surviving TH-positive neurons: 10 μM MPP+, 24 hours
Source text: as §1
To determine whether the absence of dopamine D2 receptor (D2R) might affect the number of dopaminergic neurons, dopaminergic neurons, which were isolated from mesencephalons of wild-type (WT) and D2R−/− embryonic mice, were incubated on slides with 1.0×10^5 cells and precoated with 50 μg/ml poly-D-lysine and 2 μg/ml laminin (Sigma, St. Louis, Mo.) at 37° C. for 5 days, followed by performing immunofluorescence staining. […] Using a microscope equipped with an metamorph imaging system (Universal Imaging Corporation, West Chester, Pa.) in 20 randomly selected fields per each slide, cell counts and morphometric analysis were made in randomly selected unbiased counting frames (>40 frames out of 81 grids were counted). […]

[6] = D2R−/− mice, 1 μM haloperidol for 5 minutes then 1 μM quinpirole, versus control without haloperidol
[7] = WT and D2R−/− mice treated with haloperidol
[8] = PD98059 treatment versus control without PD98059

Oc1cc2c(c(Cl)c1O)CCNCC2c1ccccc1 (centres unmarked) [SKF81297]
Nurr1 activation by D1R-specific agonist [1]: no significant change

O=C(CCCN1CCC(O)(c2ccc(Cl)cc2)CC1)c1ccc(F)cc1 [haloperidol]
D2R-mediated Nurr1 activation by dopamine after antagonist ([2]; haloperidol 1 μM preincubation for 5 minutes): reduced; also recorded: inhibited or decreased | neuritic extension [3, 6]: no changes | number of TH-positive neurons [3, 6]: no changes | average length of the neurites [3, 7]: decreased or showed insignificant changes | number of dopaminergic neurons [3, 7]: decreased or showed insignificant changes | phosphorylated ERK after quinpirole with antagonist ([4]; 1 μM haloperidol for 5 minutes plus quinpirole): neither WT nor D2R−/− neurons showed phosphorylated ERK

NCCc1ccc(O)c(O)c1 [dopamine]
luciferase activation relative to control group ([2]; HEK293T transfected with D2R, Nurr1 and NurRE-luc, dopamine at various concentrations, 6 hours): about 180% | change in luciferase activation ([2]; dopamine, in the absence of Nurr1 or D2R): no change in the activation

O=S(=O)(NCCNC/C=C/c1ccc(Br)cc1)c1cccc2cnccc12 [H-89]
D2R-induced NurRE-dependent luciferase activation in the presence of PKA inhibitor ([2]; H-89 1 μM for 20 minutes): did not give rise to a significant change

COc1cccc(-c2cc(=O)c3ccccc3o2)c1N [PD98059]
Nurr1 activation by dopamine in the presence of MEK inhibitor ([2]; PD98059 10 μM for 30 minutes): noticeably reduced | average length of neurites [3, 8]: reduced | number of TH-positive neurons [3, 8]: slightly reduced | phosphorylated ERK after quinpirole with MEK inhibitor ([4]; 50 μM PD98059 for 30 minutes plus quinpirole): neither WT nor D2R−/− neurons showed phosphorylated ERK

C[n+]1ccc(-c2ccccc2)cc1 [MPP^+, 1-Methyl-4-phenylpyridinium]
loss of dopaminergic neurons ([5]; 1 to 10 μM MPP+ for 24 hours, D2R−/− versus WT cultures): more significant loss of dopaminergic neurons in the D2R−/− mice than in WT mice | number of surviving TH-positive neurons ([5]; D2R−/− mice cultures): 40% | number of surviving TH-positive neurons ([5]; WT mice cultures): 54%
